Source: patent publication US20260248783A1 (ASCLETIS BIOSCIENCE CO., LTD., priority 2021, published 2026)

Legend:
PD-1/PD-L1 = molecular target: T1, PD-1/PD-L1 (Homo sapiens, UniProt Q9NZQ7); test: PD-1/PD-L1 Homogeneous Time-Resolved Fluorescence (HTRF) Binding Assay; conditions: PD-1/PD-L1 HTRF activity; 3 nM PD1, 10 nM PD-L1, 25° C.
T1 construct: Recombinant human PD-L1 protein (19-238) with a Histag at the C-terminus; purchased AcroBiosystems PD1-H5229 (PD-L1); PD1-H5257 (PD-1)
Method in brief: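 Human PD-L1 (19-238, His-tag) 10 nM and PD-1 (25-167, Fc-tag) 3 nM preincubated 40 min with inhibitor in PBS pH 7.4, 0.05% Tween-20, 0.1% BSA, 1% DMSO, 25 °C. Eu-anti-human IgG (1 nM) and anti-His-APC (20 nM) added, 60 min, 665/620 nm ratio; IC50 from percent control activity versus log concentration.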

PDL1 = PDL1 Jurkat-NFAT Reporter Assay; assay type: cell-based; conditions: Homo sapiens; Hep3B-OS8-hPDL1 with Jurkat-NFAT-PD1 cells, 6 hours, luciferase
Method: Example 109. PDL1 Jurkat-NFAT Reporter Assay
Preparation of Hep3B-OS8-hPDL1
1. Hep3B-OS8-hPDL1 cells were cultured in 1640 medium supplemented with 10% fetal bovine serum, 1% penicillin and streptomycin, in which 100 μg/mL G418 and Hygromycin B were also added.
2. Cells were re-suspended with RPMI 1640 medium containing 10% FBS and the cell density was adjusted to 1.25×10^5 cells/mL.
3. Cells were seeded into 96-well flat bottom plate (1.25×10^4 cells/100 μL/well).
b. Compounds solutions preparation
4. Removed the medium from pre-plated Hep3B-OS8-PDL1 cells. Washed once with 200 μL Assay Medium.
5. Prepared the Compounds dilutions in RPMI 1640 medium with 10% FBS according to the Layout.
6. Added compounds into each well in a volume of 50 μL in 9 concentrations ([…])}. Keytruda will be included as positive control at the concentration of 5 μg/mL.
7. Incubated for 20-30 min at 37° C., 5% CO2.
c. Preparation of Jurkat-NFAT-PD1
8. Jurkat-NFAT-PD1 cells were cultured in 1640 medium supplemented with 10% fetal bovine serum, 1% penicillin and streptomycin, in which 1000 μg/mL Hygromycin B and […] puromycin were also added.
9. On the second day of assay, the cells were re-suspended with RPMI 1640 medium containing 10% FBS and the cell density was adjusted to 2.5×10^5 cells/mL.
10. […]

T1 sequence (Q9NZQ7 19-238): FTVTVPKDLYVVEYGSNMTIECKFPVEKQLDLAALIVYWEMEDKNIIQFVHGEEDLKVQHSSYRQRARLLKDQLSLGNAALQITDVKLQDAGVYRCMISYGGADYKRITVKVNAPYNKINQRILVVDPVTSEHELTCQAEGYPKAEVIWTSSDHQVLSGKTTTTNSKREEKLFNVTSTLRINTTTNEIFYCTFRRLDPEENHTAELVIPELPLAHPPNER

Compound | IC50 (PD-1/PD-L1) [nM] | EC50 (PDL1) [nM]
O=C1CC[C@@H](Cn2cnn3cc(-c4cccc(-c5cccc(-c6cc7c(=O)n(C[C@@H]8CCC(=O)N8)cnn7c6)c5Cl)c4Cl)cc3c2=O)N1 [Compound 1, 6,6′-(2,2′-dichloro-[1,1′-biphenyl]-3,3′-diyl)bis(3-((5-oxopyrrolidin-2-yl)methyl)pyrrolo[2,1-f][1,2,4]triazin-4(3H)-one)] | < 10 | < 500
Cn1c(CNC[C@@H]2CCC(=O)N2)cn2cc(-c3cccc(-c4cccc(-c5cc6c(=O)n(C)c(CNC[C@@H]7CCC(=O)N7)cn6c5)c4Cl)c3Cl)cc2c1=O [Compound 74, 7,7′-(2,2′-dichloro-[1,1′-biphenyl]-3,3′-diyl)bis(2-methyl-3-(((((S)-5-oxopyrrolidin-2-yl)methyl)amino)methyl)pyrrolo[1,2-a]pyrazin-1(2H)-one)] | 10 to 100 | ≥ 500
